Data: patent EP1551873B1, “AGONISTS AND ANTAGONISTS OF THE HUMAN ODORANT RECEPTOR OR17-4 AND USES THEREOF” (Symrise AG, priority 2002, dated 2004)

Assays:
[1] = molecular target: T1, hOR17-40 (Homo sapiens, UniProt P47881); assay: Ca2+ imaging of HEK293 cells transfected with pOR17-40; assay type: cell-based
T1 construct: pOR17-40 (Ausschnitt) mit der vollständigen cDNA von hOR17-40; expressed in transfected cells; host or cells: HEK293, plasmid pOR17-40
T1 sequence (P47881 1-315): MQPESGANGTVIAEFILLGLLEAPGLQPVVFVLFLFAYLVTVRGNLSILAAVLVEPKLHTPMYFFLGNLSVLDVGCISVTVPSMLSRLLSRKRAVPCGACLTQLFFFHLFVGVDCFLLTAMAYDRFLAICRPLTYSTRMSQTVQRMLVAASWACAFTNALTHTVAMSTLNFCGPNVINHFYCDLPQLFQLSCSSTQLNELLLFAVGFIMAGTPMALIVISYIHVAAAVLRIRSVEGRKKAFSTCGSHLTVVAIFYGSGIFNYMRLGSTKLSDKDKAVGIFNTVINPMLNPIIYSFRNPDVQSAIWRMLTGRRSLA

[2] = tested on: humane Spermien; assay: Sperm activation bioassay: swimming speed by computer-assisted video motion analysis (CAVMA); assay type: cell-based, human
Description: Gefrorene Samenproben von fünf gesunden Spendern wurden aus der California Cryobank (Los Angeles, CA, USA) erhalten und für Bioassays gemäß den World Health Organization-Richtlinien (World Health Organization: Laboratory for the examination of human serum and semen-cervical mucus interaction, Cambridge University Press (1993)) vorbereitet. Nachdem die Suspensionen auf 37 °C für 10 Minuten gebracht worden waren, wurde jede Probe in HEPES-gepufferter humaner Tubarflüssigkeit (HTF; Irvine Scientific, Santa Ana, CA, USA) überführt und auf 10^7 Zellen/ml eingestellt. Die Lösungen wurden dann bei 37 °C in einer 5 %-igen CO2-Atmosphäre aufbewahrt und innerhalb von 30 Minuten für Experimente verwendet (P. Quinn, Journal of Assisted Reproductive Genetics 12, 97-105 (1995)). Die Reaktionen von Sperma auf Bourgeonal wurde (a) durch computer-assisted video motion analysis (CAVMA) gemessen, um Veränderungen in der Schwimmgeschwindigkeit (Spermaaktivierung) zu detektieren, und (b) in einem flat capillary-Assay für die Chemotaxis in der Nähe einer Diffusionsmaterialquelle untersucht. Für jede Test-oder Kontroll-Behandlung wurden fünf wiederholte Experimente unter Verwendung von Sperma der fünf Spender durchgeführt. Die Daten der Bioassays wurden statistisch durch Ein-Weg-Varianzanalyse (ANOVA) unter Verwendung eines post-hoc Scheffe-Tests (R. W. Day and G. P. Quinn, Ecol. Monogr. 59, 433-463 (1989)) analysiert. Eine Bonferroni-Korrektur wurde zum Angleichen der α-Levels für multiple Vergleiche verwendet.
Zur Untersuchung der Spermien-Aktivierung wurden Bioassays für die Schwimmgeschwindigkeit bei 37 °C durchgeführt. Spermien wurden sanft einer Kontroll- oder Testlösung einheitlicher Konzentration zugefügt. Die Bilder von Spermien (3,0 x 10^3 Zellen/ml) wurden dann unter Verwendung einer Videokamera (NEC Modell TI 23A), die auf einem Olympus IX70-Lichtmikroskop montiert war, bei 90-facher Vergrößerung aufgenommen. Um mögliche Artefakte durch Reibungskräfte zu minimieren, besaß die Kamera eine 100 µm Feldtiefe und fokussierte auf eine Region, die annäherend 2 mm von der nächsten Oberfläche entfernt war. Videobilder von Spermien wurden mit 30 Bildern/Sekunde digitalisiert und über 10-Sekundenintervalle unter Verwendung eines CAVMA-Systemes (Motion Analysis Corporation, Modell VP 320, Expert Vision und Benutzter-Software), verbunden mit einer Sun SPARC 2 Computer-Arbeitsstation bearbeitet (J. A. Riffell, P. J. Krug, R. K. Zimmer, Journal of Experimental Biology 205, 1439-1450 (2002)). Die Schwimmgeschwindigkeit wurde auf einer Bild-zu-Bild-Basis bestimmt und danach über jeden einzelnen zurückgelegten Weg gemittelt. Um zu vermeiden, sich horizontal anstatt vertikal bewegende Zellen zu messen, wurden kurze Wege mit weniger als 11 Bildern verworfen, bei denen sich die Spermien um mehr als 20 % in ihrer scheinbaren Größe veränderten.

[3] = tested on: humane Spermien; assay: Ca2+ imaging of head and midpiece of single human spermatozoa; assay type: cell-based
From the text: Die Ca^2+-imaging-Experimente wurden auf dem Träger eines invertierten Zeiss-Mikroskopes durchgeführt, das für die ratiofluorometrische Bildgebung mit einer Xenon-Bogenlampe, einem Vielfach-Wellenlängen-Illuminations-System POLYCH-ROM II zur Anregung, einer gekühlten charge-coupled device (CCD)-Kamera und einer WinNT-basierten T.I.L.L.-Vision-Software zum Sammeln und raum- und zeitabhängigen Quantifizieren Ca^2+-abhängiger Fluoreszenz-Signale (F340/F380-Verhältnis) ausgestattet war. HEK293-Zellen wurden mit 32-facher, Spermazellen mit 63-facher Vergrößerung beobachtet.
HEK293- und Spermazellen wurden unter Verwendung eines speziellen Applikations-Systems, das es gestattete, vorübergehend alle Zellen im Blickfeld aus einem von sechs benutzergewählten Kapillarröhrchen zu überspülen, Geruchs- und/oder Wirkstoffen (Testlösungen) ausgesetzt. Der Wechsel zwischen den Testlösungen erfolgte nahezu sofort; auch trat im Wesentlichen keine Wirkungsverzögerung nach dem Wechsel auf, weil die Röhrchenspitzen zum optischen Feld eng benachbart waren. Zwischen den Applikationen von Testlösungen überspülte ein Pufferlösungsstrom kontinuierlich alle Zellen im Gefäß, um jedwede potentielle Hintergrund-Anreicherung von Testlösungen (Geruchs- bzw. Wirkstoffen) zu minimieren. Alle Lösungen wurden bei Raumtemperatur appliziert. Alle verwendeten Geruchsstoffe stammten von Dr. T. Gerke, Henkel KGaA, Düsseldorf, FRG, andere Wirkstoffe wurden von Sigma gekauft. Zur Zusammensetzung der Henkel 100-Mischung vergleiche C. H. Wetzel et al., Journal of Neuroscience 19, 7426-7433 (1999).
Die mögliche Rolle von hOR17-4 in einem Ca^2+-vermittelten physiologischen Prozess in humanen Spermatozoen (z.B. Acrosomreaktion, Kapazitationsprozess oder Änderungen zur hyperaktivierten Beweglichkeit) wurden durch Ca^2+-Imaging der Kopf- und der Mittelregion von einzelnen humanen Spermien untersucht. Dazu wurden frisch von jungen, gesunden Spendern erhaltene humane Spermien unverzüglich in 1,5-ml Plastikröhrchen transferiert. Nach 30 minütiger aufrechter Inkubation bei 37 °C wurden 75 µl beweglicher Spermien aus der oberen Schicht der Spermiensuspension auf Concanavalin A-beschichtete 35 mm Petrischalen transferiert und 45 Minuten lang bei Raumtemperatur in 1 ml Ladungspuffer (pH 7,4) mit 140 mM NaCl, 5 mM KCI, 2 mM CaCl2, 2 mM MgCl2, 10 mM Hepes, 10 mM Glucose, 5 µM Fura-2-AM (Molecular Probes), and 0,1 % Pluronic F-127 inkubiert. Danach wurde das Medium sanft durch Fura-2-AM-freie Pufferlösung ausgewechselt. Nicht an den Boden angeheftetes Sperma wurde durch diesen Schritt entfernt. Ca^2+-Bilder wurden von 8 bis 15 Spermatozoen in einem zufällig gewählten Sichtfeld aufgenommen. Die Fluoreszenzsignale eines Spermienkopfes und der Mittelregion wurden gemessen. […]

Structure (SMILES)	Ca^2+-Signale (hOR17-40) [1]	Konzentration ohne weiteren Anstieg der Schwimmgeschwindigkeit [2]	EC50 ([2]; Homo sapiens, Sperm, 37 °C, read-out: ED50 (Konzentration, die die halbmaximale Antwort hervorruft), Schwimmgeschwindigkeit)	Konzentrationen mit signifikanten Antworten im Verhältnis zur HTF-Kontrolle, Schwimmgeschwindigkeit ([2]; Scheffé test P ≤ 0,03)	vorübergehende Ca^2+-Antworten, Anteil aller getesteten Spermatozoen ([3]; 5 s application, 43 of 119 spermatozoa, 12 experiments)	Schwellenwert (Konzentration für Ca^2+-Antwort) ([3]; about two orders of magnitude lower than for recombinant receptor)	Effizienz (Reihenfolge der Agonisten) in Spermien ([3]; direct comparison in the same sperm)	inhibitorischer Effekt auf das Helional-induzierte Antwortmuster ([1]; pre-incubation)	Effekt auf das Spermienverhalten, Schwimmgeschwindigkeit ([2]; 10^-7 M alone, P > 0,99)	Schwimmgeschwindigkeit als Antwort auf 10^-7 M Bourgeonal relativ zur HTF-Kontrolle ([2]; co-applied with 10^-6, 10^-7 or 10^-8 M n-Undecanal, P > 0,99)	Blockade der Ca^2+-Antworten auf Bourgeonal ([3]; co-application at same concentration as Bourgeonal, with or without pre-incubation, n = 10)
CC(C)(C)c1ccc(CCC=O)cc1 [Bourgeonal]	keine Ca^2+-Signale	> 10^-6 M	30 nM	≥ 10^-8 M	36%	≥ 10^-8 M	potentesten getesteten Liganden				
CCCCCCCCCCC=O [n-Undecanal]								keinen inhibitorischen Effekt	keinen messbaren Effekt	nicht signifikant erhöht	blockierte vollständig
